Source: patent US12077503B2, “Substituted cyclic amides and their use as herbicides” (FMC CORPORATION, priority 2015, dated 2024)

Assays:
Type in all cases: in vivo
[1] = tested on: ivy-leaved morning glory (Ipomoea hederacea); assay: Test G Post-Emergence Protocol; settings: Ipomoea, post-emergence, 312 h; for pest or weed control at 15.625 g/ha: 15.625 g ai/ha, evaluated after 13 days (100=total damage to plant; 0=no damage to plant), read-out: Morningglory, Ivy-leaved damage rating; for pest or weed control at 62.5 g/ha: 62.5 g ai/ha, read-out: Morningglory, Ivy-leaved damage rating (100=total damage to plant; 0=no damage to plant); for pest or weed control at 62.5 g/ha / pest or weed control at 250 g/ha: evaluated after 13 days; for pest or weed control at 250 g/ha: 250 g ai/ha, read-out: damage to plant, Morningglory, Ivy-leaved (100=total damage to plant; 0=no damage to plant)
Procedure, shortened: (§1)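 Sow in soil; grow 8 d (24/16 °C, 14 h light, 65% humidity); spray 15.625/62.5/250 g/ha in acetone:water 50:50 + 0.5% Tween 20; grow on, water twice daily; score damage 0–100 at 13 d.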

[2] = tested on: barnyardgrass (Echinochloa crus-galli); assay: Test G Post-Emergence Protocol; settings: Echinochloa crus-galli, post-emergence, 312 h; for pest or weed control at 15.625 g/ha: 15.625 g ai/ha, evaluated after 13 days (100=total damage to plant; 0=no damage to plant), read-out: Barnyardgrass damage rating; for pest or weed control at 62.5 g/ha: 62.5 g ai/ha, read-out: Barnyardgrass damage rating (100=total damage to plant; 0=no damage to plant); for pest or weed control at 62.5 g/ha / pest or weed control at 250 g/ha: evaluated after 13 days; for pest or weed control at 250 g/ha: 250 g ai/ha, read-out: damage to plant, Barnyardgrass (100=total damage to plant; 0=no damage to plant)
Procedure, shortened: as §1

corn (Zea mays) [3] = assay: Test G Post-Emergence Protocol; settings: Zea mays, post-emergence, 312 h; for plant injury at 15.625 g/ha: 15.625 g ai/ha, evaluated after 13 days (100=total damage to plant; 0=no damage to plant), read-out: Corn damage rating; for plant injury at 62.5 g/ha: 62.5 g ai/ha, read-out: Corn damage rating (100=total damage to plant; 0=no damage to plant); for plant injury at 62.5 g/ha / plant injury at 250 g/ha: evaluated after 13 days; for plant injury at 250 g/ha: 250 g ai/ha, read-out: damage to plant, Corn (100=total damage to plant; 0=no damage to plant)
Procedure, shortened: as §1

[4] = tested on: redroot pigweed (Amaranthus retroflexus); assay: Test G Post-Emergence Protocol; settings: Amaranthus retroflexus, post-emergence, 312 h; for pest or weed control at 15.625 g/ha: 15.625 g ai/ha, evaluated after 13 days (100=total damage to plant; 0=no damage to plant), read-out: Pigweed, Redroot damage rating; for pest or weed control at 62.5 g/ha: 62.5 g ai/ha, read-out: Pigweed, Redroot damage rating (100=total damage to plant; 0=no damage to plant); for pest or weed control at 62.5 g/ha / pest or weed control at 250 g/ha: evaluated after 13 days; for pest or weed control at 250 g/ha: 250 g ai/ha, read-out: damage to plant, Pigweed, Redroot (100=total damage to plant; 0=no damage to plant)
Procedure, shortened: as §1

[5] = tested on: giant foxtail (Setaria faberi); assay: Test G Post-Emergence Protocol; settings: Setaria faberi, post-emergence, 312 h; for pest or weed control at 15.625 g/ha: 15.625 g ai/ha, evaluated after 13 days (100=total damage to plant; 0=no damage to plant), read-out: Foxtail, Giant damage rating; for pest or weed control at 62.5 g/ha: 62.5 g ai/ha, read-out: Foxtail, Giant damage rating (100=total damage to plant; 0=no damage to plant); for pest or weed control at 62.5 g/ha / pest or weed control at 250 g/ha: evaluated after 13 days; for pest or weed control at 250 g/ha: 250 g ai/ha, read-out: damage to plant, Foxtail, Giant (100=total damage to plant; 0=no damage to plant)
Procedure, shortened: as §1

[6] = tested on: velvetleaf (Abutilon theophrasti); assay: Test G Post-Emergence Protocol; settings: Abutilon theophrasti, post-emergence, 312 h; for pest or weed control at 15.625 g/ha: 15.625 g ai/ha, evaluated after 13 days (100=total damage to plant; 0=no damage to plant), read-out: Velvetleaf damage rating; for pest or weed control at 62.5 g/ha: 62.5 g ai/ha, read-out: Velvetleaf damage rating (100=total damage to plant; 0=no damage to plant); for pest or weed control at 62.5 g/ha / pest or weed control at 250 g/ha: evaluated after 13 days; for pest or weed control at 250 g/ha: 250 g ai/ha, read-out: damage to plant, Velvetleaf (100=total damage to plant; 0=no damage to plant)
Procedure, shortened: as §1

[7] = tested on: ivy-leaved morning glory (Ipomoea hederacea); assay: Test G Pre-Emergence Protocol; settings: Ipomoea, pre-emergence, 312 h, evaluated after 13 days; for pest or weed control at 15.625 g/ha: 15.625 g ai/ha, read-out: Morning-glory, Ivy-leaved damage rating (100=total damage to plant; 0=no damage to plant); for pest or weed control at 62.5 g/ha: 62.5 g ai/ha, 100=total damage to plant, 0=no damage to plant, read-out: plant damage rating, Morningglory, Ivy-leaved; for pest or weed control at 250 g/ha: 250 g ai/ha, read-out: Morningglory, Ivy-leaved damage rating (100=total damage to plant; 0=no damage to plant)
Procedure, shortened: (§2)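 Herbicidal effect was rated 13 days post-application on a scale where 100 equals total damage. Spraying took place the day after sowing, using 15.625, 62.5 or 250 g/ha of compound in a 50:50 acetone/water solution with 0.5% Tween 20.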

[8] = tested on: barnyardgrass (Echinochloa crus-galli); assay: Test G Pre-Emergence Protocol; settings: Echinochloa crus-galli, pre-emergence, 312 h, evaluated after 13 days; for pest or weed control at 15.625 g/ha: 15.625 g ai/ha, read-out: Barnyard grass damage rating (100=total damage to plant; 0=no damage to plant); for pest or weed control at 62.5 g/ha: 62.5 g ai/ha, 100=total damage to plant, 0=no damage to plant, read-out: plant damage rating, Barnyardgrass; for pest or weed control at 250 g/ha: 250 g ai/ha, read-out: Barnyardgrass damage rating (100=total damage to plant; 0=no damage to plant)
Procedure, shortened: as §2

corn (Zea mays) [9] = assay: Test G Pre-Emergence Protocol; settings: Zea mays, pre-emergence, 312 h, evaluated after 13 days; for plant injury at 15.625 g/ha: 15.625 g ai/ha; for plant injury at 15.625 g/ha / plant injury at 250 g/ha: read-out: Corn damage rating (100=total damage to plant; 0=no damage to plant); for plant injury at 62.5 g/ha: 62.5 g ai/ha, 100=total damage to plant, 0=no damage to plant, read-out: plant damage rating, Corn; for plant injury at 250 g/ha: 250 g ai/ha
Procedure, shortened: as §2

[10] = tested on: redroot pigweed (Amaranthus retroflexus); assay: Test G Pre-Emergence Protocol; settings: Amaranthus retroflexus, pre-emergence, 312 h, evaluated after 13 days; for pest or weed control at 15.625 g/ha: 15.625 g ai/ha; for pest or weed control at 15.625 g/ha / pest or weed control at 250 g/ha: read-out: Pigweed, Redroot damage rating (100=total damage to plant; 0=no damage to plant); for pest or weed control at 62.5 g/ha: 62.5 g ai/ha, 100=total damage to plant, 0=no damage to plant, read-out: plant damage rating, Pigweed, Redroot; for pest or weed control at 250 g/ha: 250 g ai/ha
Procedure, shortened: as §2

[11] = tested on: giant foxtail (Setaria faberi); assay: Test G Pre-Emergence Protocol; settings: Setaria faberi, pre-emergence, 312 h, evaluated after 13 days; for pest or weed control at 15.625 g/ha: 15.625 g ai/ha; for pest or weed control at 15.625 g/ha / pest or weed control at 250 g/ha: read-out: Foxtail, Giant damage rating (100=total damage to plant; 0=no damage to plant); for pest or weed control at 62.5 g/ha: 62.5 g ai/ha, 100=total damage to plant, 0=no damage to plant, read-out: plant damage rating, Foxtail, Giant; for pest or weed control at 250 g/ha: 250 g ai/ha
Procedure, shortened: as §2

[12] = tested on: velvetleaf (Abutilon theophrasti); assay: Test G Pre-Emergence Protocol; settings: Abutilon theophrasti, pre-emergence, 312 h, evaluated after 13 days; for pest or weed control at 15.625 g/ha: 15.625 g ai/ha; for pest or weed control at 15.625 g/ha / pest or weed control at 250 g/ha: read-out: Velvetleaf damage rating (100=total damage to plant; 0=no damage to plant); for pest or weed control at 62.5 g/ha: 62.5 g ai/ha, 100=total damage to plant, 0=no damage to plant, read-out: plant damage rating, Velvetleaf; for pest or weed control at 250 g/ha: 250 g ai/ha
Procedure, shortened: as §2

Compound	pest or weed control at 15.625 g/ha [1] [%]	pest or weed control at 62.5 g/ha [1] [%]	pest or weed control at 250 g/ha [1] [%]	pest or weed control at 15.625 g/ha [2] [%]	pest or weed control at 62.5 g/ha [2] [%]	pest or weed control at 250 g/ha [2] [%]	plant injury at 15.625 g/ha (corn (Zea mays) [3]) [%]	plant injury at 62.5 g/ha (corn (Zea mays) [3]) [%]	plant injury at 250 g/ha (corn (Zea mays) [3]) [%]	pest or weed control at 15.625 g/ha [4] [%]	pest or weed control at 62.5 g/ha [4] [%]	pest or weed control at 250 g/ha [4] [%]	pest or weed control at 15.625 g/ha [5] [%]	pest or weed control at 62.5 g/ha [5] [%]	pest or weed control at 250 g/ha [5] [%]	pest or weed control at 15.625 g/ha [6] [%]	pest or weed control at 62.5 g/ha [6] [%]	pest or weed control at 250 g/ha [6] [%]	pest or weed control at 15.625 g/ha [7] [%]	pest or weed control at 62.5 g/ha [7] [%]	other results
CN1C[C@@H](c2cc(Cl)cc(C(F)(F)F)c2)[C@H](C(=O)Nc2ccccc2F)C1=O (racemic) [Compound 1414]	0	30	30	50	50	60	20	50	80	10	0	30	70	70	80	0	0	0	0	0	pest or weed control at 250 g/ha [7]: 20%; pest or weed control at 15.625 g/ha [8]: 20%; pest or weed control at 62.5 g/ha [8]: 70%; pest or weed control at 250 g/ha [8]: 80%; plant injury at 15.625 g/ha (corn (Zea mays) [9]): 0%; plant injury at 62.5 g/ha (corn (Zea mays) [9]): 20%; plant injury at 250 g/ha (corn (Zea mays) [9]): 50%; pest or weed control at 15.625 g/ha [10]: 0%; pest or weed control at 62.5 g/ha [10]: 0%; pest or weed control at 250 g/ha [10]: 0%; pest or weed control at 15.625 g/ha [11]: 60%; pest or weed control at 62.5 g/ha [11]: 80%; pest or weed control at 250 g/ha [11]: 80%; pest or weed control at 15.625 g/ha [12]: 0%; pest or weed control at 62.5 g/ha [12]: 0%; pest or weed control at 250 g/ha [12]: 0%
Cc1cc(C(F)(F)F)ccc1[C@@H]1CN(C)C(=O)[C@H]1C(=O)Nc1ccccc1F (racemic) [Compound 1415]	10	10	20	20	30	60	20	10	20	10	10	30	20	60	70	10	0	20	0	0	pest or weed control at 250 g/ha [7]: 0%; pest or weed control at 15.625 g/ha [8]: 10%; pest or weed control at 62.5 g/ha [8]: 50%; pest or weed control at 250 g/ha [8]: 70%; plant injury at 15.625 g/ha (corn (Zea mays) [9]): 0%; plant injury at 62.5 g/ha (corn (Zea mays) [9]): 0%; plant injury at 250 g/ha (corn (Zea mays) [9]): 0%; pest or weed control at 15.625 g/ha [10]: 10%; pest or weed control at 62.5 g/ha [10]: 0%; pest or weed control at 250 g/ha [10]: 10%; pest or weed control at 15.625 g/ha [11]: 10%; pest or weed control at 62.5 g/ha [11]: 70%; pest or weed control at 250 g/ha [11]: 80%; pest or weed control at 15.625 g/ha [12]: 0%; pest or weed control at 62.5 g/ha [12]: 0%; pest or weed control at 250 g/ha [12]: 0%
CN1C[C@@H](c2ccc(NS(C)(=O)=O)cc2)[C@H](C(=O)Nc2ccccc2F)C1=O (racemic) [Compound 1416]	0	0	0	0	0	0	0	0	0	0	0	0	0	0	0	0	0	0	0	0	pest or weed control at 250 g/ha [7]: 0%; pest or weed control at 15.625 g/ha [8]: 0%; pest or weed control at 62.5 g/ha [8]: 0%; pest or weed control at 250 g/ha [8]: 0%; plant injury at 15.625 g/ha (corn (Zea mays) [9]): 0%; plant injury at 62.5 g/ha (corn (Zea mays) [9]): 0%; plant injury at 250 g/ha (corn (Zea mays) [9]): 0%; pest or weed control at 15.625 g/ha [10]: 0%; pest or weed control at 62.5 g/ha [10]: 0%; pest or weed control at 250 g/ha [10]: 0%; pest or weed control at 15.625 g/ha [11]: 0%; pest or weed control at 62.5 g/ha [11]: 0%; pest or weed control at 250 g/ha [11]: 0%; pest or weed control at 15.625 g/ha [12]: 0%; pest or weed control at 62.5 g/ha [12]: 0%; pest or weed control at 250 g/ha [12]: 0%
